Results as given in ChEMBL document CHEMBL3792363, “2,6-Bis(benzimidazol-2-yl)pyridine as a potent transmembrane anion transporter” (Bioorg Med Chem Lett, 2016).

Experiments:
[1] = Ionophoric activity assessed as induction of chloride influx into EYPC based liposomal membranes at 15% measured within 5 mins by lucigenin based fluorescence assay; settings: artificial membrane
[2] = Ionophoric activity assessed as induction of pH discharge across EYPC based liposomal membranes at 5% by pyranine based fluorescence assay; settings: artificial membrane
[3] = Binding affinity to chloride anion assessed as association constant by spectrometric titration method
[4] = Binding affinity to bromide anion assessed as association constant by spectrometric titration method
[5] = Binding affinity to iodide anion assessed as association constant by spectrometric titration method
[6] = Binding affinity to nitrate anion assessed as association constant by spectrometric titration method
[7] = Ionophoric activity assessed as induction of pH discharge across EYPC based liposomal membranes at 1 to 5% by pyranine based fluorescence assay; settings: artificial membrane
[8] = Ionophoric activity assessed as induction of chloride influx into EYPC based liposomal membranes at 1 to 5% in presence of intravesicular NaNO3 by lucigenin based fluorescence assay; settings: artificial membrane
[9] = Binding affinity to chloride anion assessed as association constant by spectrometric titration method relative to Me2bimpy
[10] = Binding affinity to bromide anion assessed as association constant by spectrometric titration method relative to Me2bimpy
[11] = Binding affinity to iodide anion assessed as association constant by spectrometric titration method relative to Me2bimpy
[12] = Binding affinity to nitrate anion assessed as association constant by spectrometric titration method relative to Me2bimpy
[13] = Ionophoric activity assessed as induction of chloride influx into EYPC based liposomal membranes at 1 to 5% in presence of intravesicular Na2SO4 by lucigenin based fluorescence assay; settings: artificial membrane
[14] = Ionophoric activity assessed as induction of pH discharge across EYPC based liposomal membranes using chloride salt of Li+ ions at 3% by pyranine based fluorescence assay; settings: artificial membrane
[15] = Ionophoric activity assessed as induction of pH discharge across EYPC based liposomal membranes using chloride salt of Na+ ions at 3% by pyranine based fluorescence assay; settings: artificial membrane
[16] = Ionophoric activity assessed as induction of pH discharge across EYPC based liposomal membranes using chloride salt of K+ ions at 3% by pyranine based fluorescence assay; settings: artificial membrane
[17] = Ionophoric activity assessed as induction of pH discharge across EYPC based liposomal membranes using chloride salt of Rb+ ions at 3% by pyranine based fluorescence assay; settings: artificial membrane
[18] = Ionophoric activity assessed as induction of pH discharge across EYPC based liposomal membranes using chloride salt of Cs+ ions at 3% by pyranine based fluorescence assay; settings: artificial membrane
[19] = Ionophoric activity assessed as induction of pH discharge across POPC based liposomal membranes at 1 to 5% by pyranine based fluorescence assay; settings: artificial membrane
[20] = Ionophoric activity assessed as induction of pH discharge across POPC/cholesterol (30%) based liposomal membranes at 1 to 5% by pyranine based fluorescence assay; settings: artificial membrane
[21] = Ionophoric activity assessed as induction of chloride influx into EYPC based liposomal membranes at 5% measured within 5 mins by lucigenin based fluorescence assay; settings: artificial membrane
[22] = Ionophoric activity assessed as induction of chloride influx into EYPC based liposomal membranes at 1 to 5% in presence of intravesicular and extravesicular by lucigenin based fluorescence assay; settings: artificial membrane

Row | SMILES | Activity [1] [%] | Ka [3] | Ka [4] | Ka [5] | Ka [6] | Activity [7] | Activity [8] | also measured
1 | O=C(NCc1ccccc1)[C@@H](Cc1ccccc1)n1cc[n+](Cc2cccc(C[n+]3ccn([C@H](Cc4ccccc4)C(=O)NCc4ccccc4)c3)c2)c1.O=S(=O)([N-]S(=O)(=O)C(F)(F)F)C(F)(F)F.O=S(=O)([N-]S(=O)(=O)C(F)(F)F)C(F)(F)F | 35 |  |  |  |  |  |  | 
2 | CC(C)[C@H](C(=O)NCc1ccccc1)n1cc[n+](Cc2cccc(C[n+]3ccn([C@@H](C(=O)NCc4ccccc4)C(C)C)c3)c2)c1.O=S(=O)([N-]S(=O)(=O)C(F)(F)F)C(F)(F)F.O=S(=O)([N-]S(=O)(=O)C(F)(F)F)C(F)(F)F | 35 |  |  |  |  |  |  | 
3 | c1cc(-c2nc3ccccc3[nH]2)cc(-c2nc3ccccc3[nH]2)c1 |  |  |  |  |  |  |  | Activity [2]: Active
4 | CCCCCCCCCCCCNC(=O)[C@@H](C(C)C)n1cc[n+](Cc2cccc(C[n+]3ccn([C@@H](C(=O)NCCCCCCCCCCCC)C(C)C)c3)c2)c1.O=S(=O)([N-]S(=O)(=O)C(F)(F)F)C(F)(F)F.O=S(=O)([N-]S(=O)(=O)C(F)(F)F)C(F)(F)F | 35 |  |  |  |  |  |  | 
5 | Cn1c(-c2cccc(-c3nc4ccccc4n3C)n2)nc2ccccc21 |  | 4 ×10² /M | 5.03 ×10² /M | 7.07 ×10² /M | 7.23 ×10² /M | Not Active | Not Active | 
6 | c1cc(-c2nc3ccccc3[nH]2)nc(-c2nc3ccccc3[nH]2)c1 |  | 8.71 ×10³ /M | 3.04 ×10³ /M | 1.57 ×10³ /M | 4.9 ×10³ /M | Active | Active | fold change (FC) [9]: 22; fold change (FC) [10]: 6; fold change (FC) [11]: 2.2; fold change (FC) [12]: 6.8; Activity [13]: Active; Activity [14]: Active; Activity [15]: Active; Activity [16]: Active; Activity [17]: Active; Activity [18]: Active; Activity [19]: Not Active; Activity [20]: Not Active; Activity [21]: 35%; Activity [22]: Active
